# Reference: PubChem BioAssay (NCI)
#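 Test compounds were applied to cells in 96-well plates for 48 hours at 5 doses. The concentration for 50% growth inhibition is given as GI50. TGI is the concentration that stops growth completely.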
# What was measured:
# Experiment in all cases: inhibition of tumour cell growth, NCI panel, 48 h
# OVCAR-5 ovarian = test system: OVCAR-5 ovarian
# RXF 393 renal = test system: RXF 393 renal
# MALME-3M melanoma = test system: MALME-3M melanoma
# K-562 leukemia = test system: K-562 leukemia
# CCRF-CEM leukemia = test system: CCRF-CEM leukemia
# M14 melanoma = test system: M14 melanoma
# T-47D breast = test system: T-47D breast
# DU-145 prostate = test system: DU-145 prostate
# NCI/ADR-RES ovarian = test system: NCI/ADR-RES ovarian
# PC-3 prostate = test system: PC-3 prostate
structure (smiles),measurement,setting,value
Clc1ccc(C2N3CCCCC3[C@@H]3c4[nH]c5ccccc5c4CCN23)cc1 (stereo not given in full),TGI,OVCAR-5 ovarian,> 100 µM
same,TGI,RXF 393 renal,78.7 µM
same,TGI,MALME-3M melanoma,90.4 µM
same,TGI,K-562 leukemia,> 100 µM
same,TGI,CCRF-CEM leukemia,> 100 µM
same,TGI,M14 melanoma,> 100 µM
N#CC(C(=N/O)/C(=N/O)C(C#N)c1ccc(Cl)cc1)c1ccc(Cl)cc1 (stereo not given),TGI,OVCAR-5 ovarian,> 100 µM
same,TGI,RXF 393 renal,98.7 µM
same,TGI,MALME-3M melanoma,> 100 µM
same,TGI,M14 melanoma,> 100 µM
CCCCNC1=C(C(=O)OCC)C(=O)CO1,TGI,OVCAR-5 ovarian,> 100 µM
same,TGI,RXF 393 renal,> 100 µM
same,TGI,MALME-3M melanoma,> 100 µM
same,TGI,K-562 leukemia,> 100 µM
same,TGI,CCRF-CEM leukemia,> 100 µM
same,TGI,M14 melanoma,> 100 µM
Cc1ccc(-c2c3c([nH]c(=O)c2C#N)-c2cc(F)ccc2OC3)cc1,GI50,T-47D breast,80.4 µM
same,TGI,T-47D breast,> 100 µM
same,GI50,OVCAR-5 ovarian,> 100 µM
same,TGI,OVCAR-5 ovarian,> 100 µM
same,GI50,RXF 393 renal,> 100 µM
same,TGI,RXF 393 renal,> 100 µM
same,GI50,DU-145 prostate,> 100 µM
same,TGI,DU-145 prostate,> 100 µM
same,GI50,K-562 leukemia,86.4 µM
same,TGI,K-562 leukemia,> 100 µM
same,GI50,CCRF-CEM leukemia,1.19 µM
same,TGI,CCRF-CEM leukemia,7.25 µM
same,GI50,NCI/ADR-RES ovarian,> 100 µM
same,TGI,NCI/ADR-RES ovarian,> 100 µM
same,GI50,PC-3 prostate,88.7 µM
same,TGI,PC-3 prostate,> 100 µM
same,GI50,M14 melanoma,29.9 µM
same,TGI,M14 melanoma,> 100 µM
CCCCN(CCCC)C(=O)C(=O)C(C#N)c1ccc(C)cc1 (stereo not given),TGI,OVCAR-5 ovarian,> 100 µM
same,TGI,RXF 393 renal,> 100 µM
same,TGI,MALME-3M melanoma,> 100 µM
same,TGI,K-562 leukemia,> 100 µM
same,TGI,CCRF-CEM leukemia,> 100 µM
same,TGI,M14 melanoma,> 100 µM
CN(C)CCC(=O)N1C/C(=C/c2ccccc2)C(=O)/C(=C\c2ccccc2)C1,TGI,T-47D breast,17.7 µM
same,TGI,OVCAR-5 ovarian,6.66 µM
same,TGI,RXF 393 renal,4.94 µM
same,TGI,DU-145 prostate,18.5 µM
same,TGI,MALME-3M melanoma,5.9 µM
same,TGI,K-562 leukemia,0.973 µM
same,TGI,CCRF-CEM leukemia,0.874 µM
same,TGI,PC-3 prostate,4.2 µM
same,TGI,M14 melanoma,6.53 µM
CC12CC[C@@H](C(C)(C)O)C1[C@@H](O)CC1(C)C2CCC2[C@@]3(C)CC[C@H](O)C(C)(C)C3C(O)C[C@]21C (stereo not given in full),TGI,OVCAR-5 ovarian,31.2 µM
same,TGI,RXF 393 renal,23.5 µM
same,TGI,MALME-3M melanoma,32.1 µM
same,TGI,K-562 leukemia,24.5 µM
same,TGI,CCRF-CEM leukemia,27.3 µM
same,TGI,M14 melanoma,> 100 µM
CCOC(=O)NC(=O)c1cn(C2OC(COC(=O)CCCCCCCCC(=O)OCC3OC(n4cc(C(=O)NC(=O)OCC)c(=O)[nH]c4=O)C(O)C3O)C(O)C2O)c(=O)[nH]c1=O (stereo not given),TGI,OVCAR-5 ovarian,> 100 µM
same,TGI,RXF 393 renal,> 100 µM
same,TGI,MALME-3M melanoma,> 100 µM
same,TGI,K-562 leukemia,> 100 µM
same,TGI,CCRF-CEM leukemia,> 100 µM
same,TGI,M14 melanoma,> 100 µM
O=C1OCc2c1cc1ccc(O)c(OC3OC(CO)C(O)C(O)C3O)c1c2-c1ccc2c(c1)OCO2 (stereo not given),TGI,OVCAR-5 ovarian,> 100 µM
same,TGI,RXF 393 renal,> 100 µM
same,TGI,MALME-3M melanoma,> 100 µM
same,GI50,K-562 leukemia,39.5 µM
same,TGI,K-562 leukemia,> 100 µM
same,GI50,CCRF-CEM leukemia,34.9 µM
same,TGI,CCRF-CEM leukemia,> 100 µM
same,TGI,M14 melanoma,> 100 µM
CN(C(=O)C12C3C4C1C1C2C3C41C(=O)C(C)(C)C)C(C)(C)C (stereo not given),TGI,OVCAR-5 ovarian,> 100 µM
same,TGI,MALME-3M melanoma,> 100 µM
same,TGI,K-562 leukemia,> 100 µM
same,TGI,CCRF-CEM leukemia,> 100 µM
same,TGI,M14 melanoma,> 100 µM
O=C(O)Cn1ccc(=O)c2ccc([N+](=O)[O-])cc21,TGI,T-47D breast,> 100 µM
same,TGI,OVCAR-5 ovarian,> 100 µM
same,TGI,DU-145 prostate,> 100 µM
same,TGI,MALME-3M melanoma,> 100 µM
same,TGI,K-562 leukemia,> 100 µM
same,TGI,CCRF-CEM leukemia,> 100 µM
same,TGI,NCI/ADR-RES ovarian,> 100 µM
same,TGI,PC-3 prostate,> 100 µM
same,TGI,M14 melanoma,> 100 µM
O=C(CN1CCOCC1)Nc1ccc(Cn2nnc3c2C(=O)c2nnn(Cc4ccc(NC(=O)CN5CCOCC5)cc4)c2C3=O)cc1,GI50,OVCAR-5 ovarian,1.94 µM
same,TGI,OVCAR-5 ovarian,4.29 µM
same,GI50,RXF 393 renal,1.34 µM
same,TGI,RXF 393 renal,2.92 µM
same,GI50,DU-145 prostate,1.38 µM
same,TGI,DU-145 prostate,2.7 µM
same,GI50,MALME-3M melanoma,0.178 µM
same,TGI,MALME-3M melanoma,0.469 µM
same,GI50,K-562 leukemia,0.745 µM
same,TGI,K-562 leukemia,> 100 µM
same,GI50,CCRF-CEM leukemia,0.233 µM
same,TGI,CCRF-CEM leukemia,1.6 µM
same,GI50,NCI/ADR-RES ovarian,> 100 µM
same,TGI,NCI/ADR-RES ovarian,> 100 µM
same,GI50,PC-3 prostate,0.644 µM
same,TGI,PC-3 prostate,5.63 µM
same,GI50,M14 melanoma,0.596 µM
same,TGI,M14 melanoma,1.88 µM
Cc1ccc2c(c1)C(=O)/C(=C/c1ncc([N+](=O)[O-])n1C)O2,GI50,T-47D breast,20.4 µM
same,TGI,T-47D breast,76.5 µM
same,GI50,OVCAR-5 ovarian,2.7 µM
same,TGI,OVCAR-5 ovarian,> 27 µM
same,GI50,DU-145 prostate,2.65 µM
same,TGI,DU-145 prostate,7.63 µM
same,GI50,MALME-3M melanoma,1.8 µM
same,TGI,MALME-3M melanoma,4.37 µM
same,GI50,K-562 leukemia,0.598 µM
same,TGI,K-562 leukemia,> 24.9 µM
same,GI50,CCRF-CEM leukemia,0.324 µM
same,TGI,CCRF-CEM leukemia,2.95 µM
same,GI50,NCI/ADR-RES ovarian,2.24 µM
same,TGI,NCI/ADR-RES ovarian,7.04 µM
same,GI50,PC-3 prostate,2.35 µM
same,TGI,PC-3 prostate,> 24.9 µM
same,GI50,M14 melanoma,1.11 µM
same,TGI,M14 melanoma,4.9 µM
N#C/C(=C/c1ccsc1)C(=O)c1ccccc1,TGI,OVCAR-5 ovarian,> 100 µM
same,TGI,RXF 393 renal,> 100 µM
same,TGI,MALME-3M melanoma,> 100 µM
same,TGI,K-562 leukemia,> 100 µM
same,TGI,CCRF-CEM leukemia,> 100 µM
same,TGI,M14 melanoma,> 100 µM
O=C1c2c(c3c4ccccc4n(CCCCCCBr)c3c3[nH]c4ccccc4c23)C(=O)N1O,GI50,T-47D breast,1.74 µM
same,TGI,T-47D breast,7.44 µM
same,GI50,OVCAR-5 ovarian,3.22 µM
same,TGI,OVCAR-5 ovarian,17.4 µM
same,GI50,RXF 393 renal,3.32 µM
same,TGI,RXF 393 renal,14.5 µM
same,GI50,DU-145 prostate,4.01 µM
same,TGI,DU-145 prostate,15.2 µM
same,GI50,MALME-3M melanoma,2.65 µM
same,TGI,MALME-3M melanoma,7.74 µM
same,GI50,K-562 leukemia,2.8 µM
same,TGI,K-562 leukemia,10.2 µM
same,GI50,CCRF-CEM leukemia,2.14 µM
same,TGI,CCRF-CEM leukemia,5.53 µM
same,GI50,NCI/ADR-RES ovarian,2.49 µM
same,TGI,NCI/ADR-RES ovarian,7.8 µM
same,GI50,M14 melanoma,2.07 µM
same,TGI,M14 melanoma,7.68 µM
O=C(N/N=C/c1ccccc1O)c1cccc([N+](=O)[O-])c1,TGI,OVCAR-5 ovarian,> 100 µM
same,TGI,RXF 393 renal,> 88.9 µM
same,TGI,MALME-3M melanoma,> 100 µM
same,TGI,K-562 leukemia,> 100 µM
same,TGI,CCRF-CEM leukemia,> 100 µM
same,TGI,M14 melanoma,43.2 µM
Nc1ccn(C2O[C@H](CO)[C@@H](O)[C@@H]2O)c(=O)n1 (stereo not given in full),TGI,T-47D breast,> 100 µM
same,TGI,OVCAR-5 ovarian,> 100 µM
same,TGI,RXF 393 renal,> 100 µM
same,TGI,DU-145 prostate,> 100 µM
same,GI50,MALME-3M melanoma,79.6 µM
same,TGI,MALME-3M melanoma,> 100 µM
same,TGI,NCI/ADR-RES ovarian,> 100 µM
same,TGI,PC-3 prostate,> 100 µM
same,GI50,M14 melanoma,22.3 µM
same,TGI,M14 melanoma,> 100 µM
CC1(Cl)C(=O)NC(=O)N(C2CC(N=[N+]=[N-])C(CO)O2)C1N=[N+]=[N-] (stereo not given),TGI,OVCAR-5 ovarian,> 100 µM
same,TGI,RXF 393 renal,> 100 µM
same,TGI,MALME-3M melanoma,> 100 µM
same,TGI,K-562 leukemia,> 100 µM
same,TGI,CCRF-CEM leukemia,> 100 µM
same,TGI,M14 melanoma,> 100 µM
Cc1ccc(C)c(NC(=O)CC/C(=N\NC(=O)C(=O)NN)C(C)C(=O)c2ccc(O)cc2)c1 (stereo not given),TGI,OVCAR-5 ovarian,> 100 µM
same,TGI,RXF 393 renal,> 100 µM
same,TGI,MALME-3M melanoma,> 100 µM
same,TGI,K-562 leukemia,> 100 µM
same,TGI,CCRF-CEM leukemia,> 100 µM
same,TGI,M14 melanoma,> 100 µM
COc1ccc2[nH]c3c(C)c4c(c(C)c3c2c1)CN(C)CC4,TGI,OVCAR-5 ovarian,54.2 µM
same,TGI,RXF 393 renal,36.2 µM
same,TGI,MALME-3M melanoma,35 µM
same,TGI,K-562 leukemia,25.8 µM
same,TGI,CCRF-CEM leukemia,> 100 µM
same,TGI,M14 melanoma,30.5 µM
O=C1/C(=C/c2ccc(Cl)cc2Cl)N=C(c2ccccc2)N1Cc1ccco1,GI50,OVCAR-5 ovarian,34.5 µM
same,TGI,OVCAR-5 ovarian,> 100 µM
same,GI50,RXF 393 renal,22.6 µM
same,TGI,RXF 393 renal,51.8 µM
same,GI50,DU-145 prostate,21.1 µM
same,TGI,DU-145 prostate,51 µM
same,GI50,MALME-3M melanoma,21.2 µM
same,TGI,MALME-3M melanoma,52.8 µM
same,GI50,K-562 leukemia,41.1 µM
same,TGI,K-562 leukemia,> 100 µM
same,GI50,CCRF-CEM leukemia,3.58 µM
same,TGI,CCRF-CEM leukemia,7.6 µM
same,GI50,NCI/ADR-RES ovarian,25.5 µM
same,TGI,NCI/ADR-RES ovarian,57.9 µM
same,GI50,PC-3 prostate,30.8 µM
same,TGI,PC-3 prostate,93.9 µM
same,GI50,M14 melanoma,29.1 µM
same,TGI,M14 melanoma,> 100 µM
